Experimental data reported in patent publication US20240300959A1, “BALASUBRAMIDE DERIVATIVE AND USE THEREOF IN PREPARATION OF MEDICINE FOR TREATING ACUTE LUNG INJURY” (Guangdong Pharmaceutical University, priority 2023, published 2024).
“And” between values parts separate entries of the source, which are not always exact repeats. Equal values may be shown once.

How the values were obtained:
[1] = system: inflammation genes in RAW264.7 macrophages stimulated by lipopolysaccharide; assay: qPCR expression level of inflammation genes in LPS-stimulated RAW264.7 macrophages; type: cell-based, mice; settings: RAW264.7, LPS
Protocol: RAW264.7 cells were inoculated into a 24-well plate at a density of 5×10^5 per well. When the cell density was 70%-80%, the RAW264.7 cells were pretreated with (+)3C-20 (5 μM, 10 μM, 20 μM). After 3 h, lipopolysaccharide (LPS, 100 ng/mL) was added into all wells for action for 2 h except for a control group. A supernatant was discarded, and the cells at the bottom of the plate were fully lysed with Trizol (Nanjing Vazyme, R401-01). RNA was extracted according to an RNA extraction instruction, and subjected to reverse transcription to obtain cDNA, followed by qPCR according to an amplification method at 95° C. for a total of 5 min (at 95° C. for 10 s, and at 60° C. for 30 s) in 40 cycles, and finally statistical calculation was performed by ΔCt.

[2] = system: mice with sepsis and lung injury caused by intraperitoneal injection of lipopolysaccharide; assay: Acute lung injury caused by sepsis (intraperitoneal injection of lipopolysaccharide); type: in vivo, ICR mice; settings: for Content of TNF-α in serum (% of Model) / Area percentage of alveolar cells (%): 6 h after i.p. LPS; for Area percentage of alveolar cells (%): H&E lung sections; for Change multiple of IL-1β / Change multiple of IL-6 / Change multiple of TNF-α / Change multiple of iNOS: lung tissue RT-PCR; for Lung index (%): 6 h after i.p. LPS 10 mg/kg; for Body weight (Day 1) / Body weight (Day 2) / Body weight (Day 3): i.p. LPS sepsis model, in g (unit assumed)
Protocol: Administration and grouping of animals: Male ICR mice were used as experimental animals, which were randomly divided into a control group, a model group, a positive administration group and administration groups according to the body weight. The control group and the model group were administered with a solvent by intraperitoneal injection (the solvent was prepared from DMSO, Kolliphor HS15 and Saline at a ratio of 1:2:7), the positive administration group was administered with 5 mg/kg dexamethasone (DEX) by intraperitoneal injection, and the administration groups were administered with (+)3C-20 at a concentration of 10 mg/kg and 50 mg/kg, respectively, by intraperitoneal injection. The dexamethasone and the (+)3C-20 were dissolved in the above solvent and were clear and transparent. The administration was continued for 3 days. 2 h after the last administration, all the other groups were administered with LPS (10 mg/kg) by intraperitoneal injection while the control group was administered with an equal volume of normal saline by intraperitoneal injection. Body weight and lung index: The mice were weighed and randomly divided on day 1 and continuously weighed for 3 days before administration, and growth conditions of the mice were measured by statistics. The mice were administered with LPS by intraperitoneal injection 2 h after administration on day 3, then the mice were dissected 6 h later, and the lungs were taken, weighed and recorded.
On day 3, 6 h after the intraperitoneal injection of LPS, whole blood was collected from eye sockets and then subjected to centrifugation to prepare serum, and the serum was frozen at −80° C. The lungs were subjected to perfusion with PBS and fixed by paraformaldehyde, and the fixed lungs were stained with hematoxylin-eosin (H&E) after dehydration, paraffin embedding and sectioning. The serum was tested by a commercial TNF-α ELISA kit. Histopathological results and data statistics are shown in FIG. 7-1, FIG. 7-2 and Table 7.
A small amount of frozen lung tissues were taken and fully ground, and the expression of inflammation related genes in the lung tissues was detected by an RT-PCR technology according to an operation instruction of an RNA extraction kit.

RAW264.7 cells = assay: Cytotoxicity test, CCK-8 cell viability of RAW264.7 cells (24 h); type: cell-based, mice; settings: 10 μM, RAW264.7 cell viability
Protocol: RAW264.7 cells were inoculated into a 96-well plate at a density of 1×10^5 per well. When the cell density was 70%-80%, the RAW264.7 cells were pretreated with 10 mM working solutions prepared from 18 balasubramide derivatives at a final concentration of 10 μM for 24 h, and then the cell viability was determined by a CCK-8 method.

SMILES: O=C(CCc1ccc(C(F)(F)F)cc1)O[C@@H]1C(=O)NCCc2c([nH]c3ccccc23)[C@H]1c1ccc(C(F)(F)F)cc1 [(+)-3C-20]
- Change multiple of COX-2 ([1]; 5 μM): 4.20 ± 0.16
- Change multiple of IL-1β ([1]; 5 μM): 62.02 ± 7.52
- Change multiple of IL-6 ([1]; 5 μM): 23.17 ± 0.9
- Change multiple of TNF-α ([1]; 5 μM): 11.03 ± 0.87
- Change multiple of COX-2 ([1]; 10 μM): 3.95 ± 0.9
- Change multiple of IL-1β ([1]; 10 μM): 28.51 ± 0.4
- Change multiple of IL-6 ([1]; 10 μM): 16.09 ± 0.24
- Change multiple of TNF-α ([1]; 10 μM): 6.00 ± 1.96
- Change multiple of COX-2 ([1]; 20 μM): 3.49 ± 0.0^8
- Change multiple of IL-1β ([1]; 20 μM): 12.58 ± 1.72
- Change multiple of IL-6 ([1]; 20 μM): 6.53 ± 0.31
- Change multiple of TNF-α ([1]; 20 μM): 4.49 ± 0.81
- effective dose for anti-inflammatory activity (inhibition of expression of inflammation genes) [1]: 5 μM, 10 μM or 20 μM
- Content of TNF-α in serum (% of Model) ([2]; 10 mg/kg i.p.): 78.38 ± 11.32 ^ % of Model
- Area percentage of alveolar cells (%) ([2]; 10 mg/kg i.p.): 38.68 ± 3.73%
- Change multiple of IL-1β ([2]; 10 mg/kg i.p., i.p. LPS): 9.68 ± 0.67
- Change multiple of IL-6 ([2]; 10 mg/kg i.p., i.p. LPS): 47.5 ± 7.38
- Change multiple of TNF-α ([2]; 10 mg/kg i.p., i.p. LPS): 10.58 ± 1.72
- Change multiple of iNOS ([2]; 10 mg/kg i.p., i.p. LPS): 12.44 ± 1.28 ^
- Lung index (%) ([2]; 10 mg/kg intraperitoneal 3 days): 0.714 ± 0.02 ^ %
- Body weight (Day 1) ([2]; 10 mg/kg intraperitoneal): 25.42 ± 1.1
- Body weight (Day 2) ([2]; 10 mg/kg intraperitoneal): 25.46 ± 1.2
- Body weight (Day 3) ([2]; 10 mg/kg intraperitoneal): 25.77 ± 1.03
- Content of TNF-α in serum (% of Model) ([2]; 50 mg/kg i.p.): 55.06 ± 5.96 % of Model
- Area percentage of alveolar cells (%) ([2]; 50 mg/kg i.p.): 30.43 ± 2.41 %
- Change multiple of IL-1β ([2]; 50 mg/kg i.p., i.p. LPS): 10.13 ± 1.72
- Change multiple of IL-6 ([2]; 50 mg/kg i.p., i.p. LPS): 13.73 ± 1.56
- Change multiple of TNF-α ([2]; 50 mg/kg i.p., i.p. LPS): 5.55 ± 0.86
- Change multiple of iNOS ([2]; 50 mg/kg i.p., i.p. LPS): 5.42 ± 1.02
- Lung index (%) ([2]; 50 mg/kg intraperitoneal 3 days): 0.672 ± 0.014 %
- Body weight (Day 1) ([2]; 50 mg/kg intraperitoneal): 25.34 ± 0.57
- Body weight (Day 2) ([2]; 50 mg/kg intraperitoneal): 26.16 ± 1.22
- Body weight (Day 3) ([2]; 50 mg/kg intraperitoneal): 27.01 ± 1.08
- pathological lung injury compared with the model group, in words ([2]; 50 mg/kg, i.p. LPS): obviously relieving pathological lung injury
- Percentage of CCK-8 in a model group (%) (RAW264.7 cells): 103.97 ± 3.88% and 95.04 ± 3.22%
